pEC50: −log10 of the molar value.
Assays:
fibroblasts = test: Antiproliferative assay (inhibition of cell proliferation, procedure of Pledger et al.); format: cell-based; settings: for Antiproliferative Assay Data Inhibition (%): percent inhibition at the maximum concentration tested; for pEC50: Fibroblast
Excerpt: The compounds of Formula I are active as inhibitors of cell proliferation as shown in Table 1 by the test procedure described in Pledger W.J., Stiles C.D., Antniades H.N., Scher C.D., (Proc. Natl. Acad. Sci (USA) (1977). In addition, various compounds of Formula I are also inhibitors of ADP induced platelet aggregation and are useful in the prevention or treatment of thrombotic diseases and related complications by, for example, inhibition or reversal of platelet aggregation, or platelet adhesion or blood coagulation. […]

[1] = test system: ADP induced platelet aggregation; test: Inhibition of ADP-induced platelet aggregation (procedure of Born and Cross); format: cell-based; settings: for inhibition at 10 µg/mL: read-out: Inhibition of Platelet Aggregation 10 ug/ml; for inhibition at 30 µg/mL: read-out: Inhibition of Platelet Aggregation 30 ug/ml
Procedure: Most compounds of Formula I are active as inhibitors of platelet aggregation as shown in Table 1 by the test procedure described in Born, G.R., Cross M.J., J. Physiol., 168, p. 178 (1963).
Also, reported is the percent inhibition of platelet aggregation at 10ug/ml and 30 ug/ml concentrations.

Compound	Antiproliferative Assay Data Inhibition (%) (fibroblasts)	inhibition at 10 µg/mL [1]	inhibition at 30 µg/mL [1]	pEC50 (fibroblasts)	antiproliferation or inhibition activity (in words) (fibroblasts)
O=c1cc(-c2ccc(CN3CCCCC3CO)cc2)oc(N2CCOCC2)c1 (stereo not shown) [Compound 21, 2-(4-((2-(hydroxymethyl)-1-piperidinyl)methyl)phenyl)-6-(4-morpholinyl)-4H-pyran-4-one]	13%	10%	10%		
CCCCC(Oc1ccc(-c2cc(=O)cc(N3CCOCC3)o2)cc1)c1ccccc1 (stereo not shown) [Compound 11, 2-(4-Morpholinyl)-6-(4-((1-phenylpentyl)oxy)phenyl)-4H-pyran-4-one]		10%	10%	4.64	
O=c1cc(-c2ccc(OCc3ccccn3)cc2)oc(N2CCOCC2)c1 [Compound 6, 2-(4-Morpholinyl)-6-(4-(2-pyridinylmethoxy)phenyl)-4H-pyran-one]	72%	25%	40%	4.83	
O=c1cc(-c2ccc(OCCN3CCCCC3)cc2)oc(N2CCOCC2)c1 [Compound 7, 2-(4-Morpholinyl)-6-((4-(2-(1-piperidinyl)ethyl)oxy)phenyl)-4H-pyran-4-one]	30%	60%	70%	< 4.51	
O=c1cc(-c2ccc(OCc3cccnc3)cc2)oc(N2CCOCC2)c1 [Compound 5, 2-(4-Morpholinyl)-6-(4-(3-pyridinylmethoxy)phenyl)-4H-pyran-4-one]	77%	40%	55%	4.95	
O=c1cc(-c2cccc(O)c2)oc(N2CCOCC2)c1 [Compound 16, 2-(3-hydroxyphenyl)-6-(4-morpholinyl)-4H-pyran-4-one]	73%	5%	44%	4.55	
CC(C)(C)C(=O)COc1ccc(-c2cc(=O)cc(N3CCOCC3)o2)cc1 [Compound 4, 2-(4-(3,3-Dimethyl-2-oxobutoxy)phenyl)-6-(4-morpholinyl)-4H-pyran-4-one]	66%	45%	60%	5.03	
Nc1ccc(-c2cc(=O)cc(N3CCOCC3)o2)cc1 [Compound 25, 2-(4-Aminophenyl)-6-(4-morpholinyl)-4H-pyran-4-one]		45%	55%	4.73	
O=c1cc(-c2ccc(F)cc2)oc(N2CCOCC2)c1 [Compound 22, 2-(4-Fluorophenyl)-6-(4-morpholinyl)-4H-pyran-4-one]	25%	42%	61%	< 4.70	
O=c1cc(-c2ccc(OCc3ccc4ccccc4n3)cc2)oc(N2CCOCC2)c1 [Compound 8, 2-(4-Morpholinyl)-6-(4-(2-quinolinylmethoxy)phenyl)-4H-pyran-4-one]		35%	35%	5.17	
O=c1cc(-c2ccc(OCc3ccccc3)cc2)oc(N2CCOCC2)c1 [Compound 2]		10%	15%	5.16	
O=c1cc(-c2ccc(O)cc2)oc(N2CCOCC2)c1 [Compound 1, 2-(4-Hydroxyphenyl)-6-(4-morpholinyl)-4H-pyran-4-one]	54%	75%	95%	4.53	
O=c1cc(-c2ccccc2O)oc(N2CCOCC2)c1 [Compound 10, 2-(2-Hydroxyphenyl)-6-(4-morpholinyl)-4H-pyran-4-one]	34%			4.21	
O=c1cc(-c2ccc(N3CCCCC3)cc2)oc(N2CCOCC2)c1 [Compound 24, 2-(4-Morpholinyl)-6-4-(1-piperidinyl)phenyl-4H-pyran-4-one]		10%	50%	6.32	
O=c1cc(-c2ccc(CN3CCCC3)cc2)oc(N2CCOCC2)c1 [Compound 19, 2-(4-morpholinyl)-6-(4-(1-pyrrolidinylmethyl)phenyl)-4H-pyran-4-one]	12%	5%	10%		
O=c1cc(-c2ccc(N3CCCC3)cc2)oc(N2CCOCC2)c1 [Compound 23, 2-(4-Morpholinyl)-6-4-(1-pyrrolidinyl)phenyl-4H-pyran-4-one]		20%	50%	6.60	
O=c1cc(-c2ccc(CN3CCCCC3)cc2)oc(N2CCOCC2)c1 [Compound 18, 2-(4-morpholinyl)-6-(4-(1-piperidinylmethyl)phenyl)-4H-pyran-4-one]	8%	10%	18%		
O=c1cc(-c2ccccc2OCc2ccccc2)oc(N2CCOCC2)c1 [Compound 9, 2-(4-Morpholinyl)-6-(2-(phenylmethoxy)phenyl)-4H-pyran-4-one]	88%	60%	65%	4.94	
O=c1cc(-c2ccc(CO)cc2)oc(N2CCOCC2)c1 [Compound 17, 2-(4-(hydroxymethyl)phenyl)-6-(4-morpholinyl)-4H-pyran-4-one]	20%	0%	0%		
O=c1cc(-c2cccc(OCc3ccccc3)c2)oc(N2CCOCC2)c1 [Compound 15, 2-(4-morpholinyl)-6-(3-(phenylmethoxy)phenyl)-4H-pyran-4-one]	96%	0%	0%	5.04	
CN1CCN(Cc2ccc(-c3cc(=O)cc(N4CCOCC4)o3)cc2)CC1 [Compound 20, 2-(4-((4-methyl-1-piperazinyl)methyl)phenyl)-6-(4-morpholinyl)-4H-pyran-4-one]	9%	0%	20%		
O=c1cc(CN2CCOCC2)oc(-c2ccc(OCc3ccccc3)cc2)c1 [Compound 12]	36%	0%	0%	4.39	
O=c1cc(CN2CCOCC2)oc(-c2ccc(O)cc2)c1 [Compound 14, 2-(4-hydroxyphenyl)-6-(4-morpholinylmethyl)-4H-pyran-4-one]	0%	0%	0%		no measurable antiproliferation or inhibition activity
O=c1cc(CN2CCCCC2)oc(-c2ccc(OCc3ccccc3)cc2)c1 [Compound 13]	20%	0%	0%		
O=c1cc(-c2ccccc2)oc(N2CCOCC2)c1 [Compound 3, 2-(4-Morpholinyl)-6-phenyl-4H-pyran-4-one]		45%	50%	4.55	

From patent EP0489877B1, “ANTIATHEROSCLEROTIC AND ANTITHROMBOTIC 2-AMINO-6-PHENYL-4H-PYRAN-4-ONES” (THE UPJOHN COMPANY, priority 1990, dated 1992)
